Laboratory results: patent US7745446B2, “Pyrazolo[1,5-c]pyrimidines” (Bayer Schering Pharma Aktiengesellschaft, priority 2004, dated 2010)

Key:
[1] = biological target: T1, GST-ΔPH-Akt1 (Homo sapiens, UniProt P31749); assay: Biochemical ΔPH Akt1 assay (flashplate, 33P incorporation into histone 2B); conditions: 100 nM ATP, histone 2B substrate; read-out: ΔPHAkt1 inhibition: IC50
T1 construct: named GST-deltaPH-Akt1; 107-480aa; cloned in the pAcGl vector; GST (N); made in house; host or cells: SF9 insect cells (baculovirus vector pAcG1), co-expressed with PDK1
Text: For the biochemical assay ΔPHAkt1 is used devoid of its PH domain as a GST fusion protein (named GST-deltaPH-Akt1; 107-480aa; cloned in the pAcGl vector (BD Biosciences Pharmingen)), co-expressed with PDK1 in SF9 insect cells. The protein is purified using glutathion-affinity chromatography by standard protocols.
In order to study the inhibition of Akt according to the invention, a flashplate-based assay has been developed.
The Akt1 assay is a biochemical assay using Akt1 devoid of its PH domain and co-expressed with PDK1 in insect cells. The GST-ΔPH-Akt1 assay is run in 96 well plates by incubating 100 ng/well GST-ΔPH-Akt1, 100 ng/well histone 2B (Roche, #223514) as substrate, 10 μl of compound of invention (test compounds were dissolved as 10 mM solutions in dimethylsulfoxide (DMSO) and subsequently diluted) and 100 nM ATP (including ^33P-ATP) in 100 μl of reaction buffer ([…], pH7,5; 3 mM MgCl2; 3 mM MnCl2; 3 μM Na-Orthovanadat; 1 mM DTT; 1 μg/ml PEG8000) for 80 minutes at 30° C. The reactions are terminated by adding 100 μl stopping buffer (2% H3PO4 for 5 minutes) and are washed 3 times by using washing buffer (0.9% NaCl). Relying on the incorporation of ^33P into the protein substrate histone 2B, the detection is based on the adhesion of the phosphorylated protein to the surface of scintillator-coated flash plates (NEN, USA; #SMP-200). This phosphorylation is measured by counting the plate for 60 sec. using a plate reader (Wallac Microbeta; Perkin Elmer, USA).

[2] = biological target: T2, PKA (Homo sapiens, UniProt P17612); assay: Biochemical PKA assay (flashplate); conditions: 100 nM ATP; read-out: PKA inhibition: −log IC50 (converted)
T2 construct: His; purchased PanVera, USA #R3791; host or cells: E. coli
Experimental: For the biochemical PKA assay the catalytic subunit of PKA is expressed in E. coli as a His-tagged human recombinant protein and purified accordingly (PanVera, USA; #R3791).
In order to study the kinase inhibition activity of the compounds according to the invention, a flashplate-based assay has been developed for the serine/threonine kinase, PKA. The assay is run in 96 well plates by incubating 1 ng/well His-PKA (PanVera, USA; #R3791), 0.5 μM/well PKA peptide (#12-394; Upstate, USA) as substrate, 10 μl of compound of invention (test compounds were dissolved as 10 mM solutions in dimethylsulfoxide (DMSO) and subsequently diluted) and 100 nM ATP (including ^33P-ATP) in 100 μl of reaction buffer ([…], pH7,5; 3 mM MgCl2; 3 mM MnCl2; 3 μM Na-Orthovanadat; 1 mM DTT) for 80 minutes at 22° C. The reactions are stopped by adding 100 μl stopping buffer (2% H3PO4 for 5 minutes) and are washed 3 times by using washing buffer (200 μl 1×PBS). Relying on the incorporation of ^33P into the peptide substrate, the detection is based on the adhesion of the phosphorylated peptide to the surface of scintillator-coated Flash plates (Perkin Elmer, USA; #SMP-103). This phosphorylation is measured by counting the plate for 60 sec. using a plate reader (Wallac Microbeta; Perkin Elmer, USA). By using this method the IC50 of the PKA inhibition is determined.

[3] = test system: MCF7 cells; assay: Cellular proliferation/cytotoxicity assay (Alamar Blue), MCF7; conditions: Homo sapiens, MCF7, 48 h, read-out: Anti-proliferative/cytotoxic activity: IC50 MCF7
[4] = test system: MDA-MB-468 cells; assay: Cellular proliferation/cytotoxicity assay (Alamar Blue), MDA-MB-468; conditions: Homo sapiens, MDA-MB-468, 48 h, read-out: Anti-proliferative/cytotoxic activity: IC50 MDA468

T1 sequence (P31749 107-480, stated change not applied): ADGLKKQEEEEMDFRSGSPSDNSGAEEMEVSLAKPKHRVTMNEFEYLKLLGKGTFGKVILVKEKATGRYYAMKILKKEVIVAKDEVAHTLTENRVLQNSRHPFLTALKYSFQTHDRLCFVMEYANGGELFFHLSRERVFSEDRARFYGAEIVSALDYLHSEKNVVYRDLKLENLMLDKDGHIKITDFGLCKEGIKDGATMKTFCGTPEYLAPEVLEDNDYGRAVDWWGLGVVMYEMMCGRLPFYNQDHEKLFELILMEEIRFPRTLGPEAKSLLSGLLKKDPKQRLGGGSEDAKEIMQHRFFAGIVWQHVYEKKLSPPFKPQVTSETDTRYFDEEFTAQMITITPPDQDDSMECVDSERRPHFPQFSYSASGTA

Compound | IC50 [1] | IC50 [2] | IC50 [3] | IC50 [4]
CC(C)(N)c1ccc(C(=O)Nc2ccc(Nc3nc(-c4cccc5c4oc4ccccc45)cc4ccnn34)cc2)cc1 [Example 39, 4-(1-Amino-1-methyl-ethyl)-N-[4-(5-dibenzofuran-4-yl-pyrazolo[1,5-c]pyrimidin-7-ylamino)-phenyl]-benzamide] | ≤ 1.75 µM | 6.31 to 100 µM | ≤ 16.9 µM | ≤ 13.6 µM
CCOc1ccc2cc(-c3cc4ccnn4c(Nc4ccc(NC(=O)c5ccc(CN)cc5)cc4)n3)ccc2c1 [Example 46, 4-Aminomethyl-N-{4-[5-(6-ethoxy-naphthalen-2-yl)-pyrazolo[1,5-c]pyrimidin-7-ylamino]-phenyl}-benzamide] | ≤ 1.75 µM | > 100 µM | ≤ 16.9 µM | ≤ 13.6 µM
COCCOc1ccc2cc(-c3cc4ccnn4c(Nc4ccc(NC(=O)c5ccc(CN)cc5)cc4)n3)ccc2c1 [Example 47, 4-Aminomethyl-N-(4-{5-[6-(2-methoxy-ethoxy)-naphthalen-2-yl]-pyrazolo[1,5-c]pyrimidin-7-ylamino}-phenyl)-benzamide] | ≤ 1.75 µM | > 100 µM | ≤ 16.9 µM | ≤ 13.6 µM
NCc1cncc(C(=O)Nc2ccc(Nc3nc(-c4cccc5c4oc4ccccc45)cc4ccnn34)cc2)c1 [Example 52, 5-Aminomethyl-N-[4-(5-dibenzofuran-4-yl-pyrazolo[1,5-c]pyrimidin-7-ylamino)-phenyl]-nicotinamide] | ≤ 1.75 µM | > 100 µM | ≤ 16.9 µM | ≤ 13.6 µM
O=C(Nc1ccc(Nc2nc(-c3cccc4c3oc3ccccc34)cc3ccnn23)cc1)c1ccc2c(c1)CCNC2 [Example 58, 1,2,3,4-Tetrahydro-isoquinoline-6-carboxylic acid [4-(5-dibenzofuran-4-yl-pyrazolo[1,5-c]pyrimidin-7-ylamino)-phenyl]-amide] | ≤ 1.75 µM | > 100 µM | ≤ 16.9 µM | ≤ 13.6 µM
NCc1ccc(C(=O)Nc2ccc(Nc3nc(-c4ccc(I)cc4)cc4ccnn34)cc2)cc1 [Example 68, 4-Aminomethyl-N-{4-[5-(4-iodo-phenyl)-pyrazolo[1,5-c]pyrimidin-7-ylamino]-phenyl}-benzamide] | ≤ 1.75 µM | 6.31 to 100 µM | ≤ 16.9 µM | ≤ 13.6 µM
NCc1ccc(C(=O)Nc2ccc(Nc3nc(-c4ccc(-c5ccccc5F)cc4)cc4ccnn34)cc2)cc1 [Example 69, 4-Aminomethyl-N-{4-[5-(2′-fluoro-biphenyl-4-yl)-pyrazolo[1,5-c]pyrimidin-7-ylamino]-phenyl}-benzamide] | ≤ 1.75 µM | 6.31 to 100 µM | ≤ 16.9 µM | ≤ 13.6 µM

Now from value to molecule, other results behind:

IC50 [1] | IC50 [2] | Compound | IC50 [3] | IC50 [4]
≤ 1.75 µM | > 100 µM | O=C(Nc1ccc(Nc2nc(-c3cccc4c3oc3ccccc34)cc3ccnn23)cc1)c1ccc2c(c1)CNCC2 [Example 35, 1,2,3,4-Tetrahydro-isoquinoline-7-carboxylic acid [4-(5-dibenzofuran-4-yl-pyrazolo[1,5-c]pyrimidin-7-ylamino)-phenyl]-amide] | ≤ 16.9 µM | ≤ 13.6 µM
≤ 1.75 µM | > 100 µM | NCc1ccc(C(=O)Nc2ccc(Nc3nc(-c4cccc5c4oc4ccccc45)cc4ccnn34)cc2)o1 [Example 38, 5-Aminomethyl-furan-2-carboxylic acid [4-(5-dibenzofuran-4-yl-pyrazolo[1,5-c]pyrimidin-7-ylamino)-phenyl]-amide] | ≤ 16.9 µM | ≤ 13.6 µM
≤ 1.75 µM | > 100 µM | NCc1ccc(C(=O)Nc2ccc(Nc3nc(-c4ccc5cc(OCc6ccccc6)ccc5c4)cc4ccnn34)cc2)cc1 [Example 42, 4-Aminomethyl-N-{4-[5-(6-benzyloxy-naphthalen-2-yl)-pyrazolo[1,5-c]pyrimidin-7-ylamino]-phenyl}-benzamide] | ≤ 16.9 µM | ≤ 13.6 µM
≤ 1.75 µM | > 100 µM | NCc1ccnc(C(=O)Nc2ccc(Nc3nc(-c4cccc5c4oc4ccccc45)cc4ccnn34)cc2)c1 [Example 53, 4-Aminomethyl-pyridine-2-carboxylic acid [4-(5-dibenzofuran-4-yl-pyrazolo[1,5-c]pyrimidin-7-ylamino)-phenyl]-amide] | ≤ 16.9 µM | ≤ 13.6 µM
≤ 1.75 µM | > 100 µM | COc1ccc(-c2ccc(-c3cc4ccnn4c(Nc4ccc(NC(=O)c5ccc(CN)cc5)cc4)n3)cc2)cc1 [Example 55, 4-Aminomethyl-N-{4-[5-(4′-methoxy-biphenyl-4-yl)-pyrazolo[1,5-c]pyrimidin-7-ylamino]-phenyl}-benzamide] | ≤ 16.9 µM | ≤ 13.6 µM
≤ 1.75 µM | 6.31 to 100 µM | COc1ccccc1-c1ccc(-c2cc3ccnn3c(Nc3ccc(NC(=O)c4ccc(CN)cc4)cc3)n2)cc1 [Example 56, 4-Aminomethyl-N-{4-[5-(2′-methoxy-biphenyl-4-yl)-pyrazolo[1,5-c]pyrimidin-7-ylamino]-phenyl}-benzamide] | ≤ 16.9 µM | ≤ 13.6 µM
≤ 1.75 µM | > 100 µM | O=C(Nc1ccc(Nc2nc(-c3cccc4c3oc3ccccc34)cc3ccnn23)cc1)c1ccc(CNCCO)cc1 [Example 57, N-[4-(5-Dibenzofuran-4-yl-pyrazolo[1,5-c]pyrimidin-7-ylamino)-phenyl]-4-[(2-hydroxy-ethylamino)-methyl]-benzamide] | ≤ 16.9 µM | ≤ 13.6 µM
≤ 1.75 µM | 6.31 to 100 µM | NCc1ccc(C(=O)Nc2ccc(Nc3nc(-c4cccc5c4oc4ccccc45)cc4ccnn34)cc2)nc1 [Example 65, 5-Aminomethyl-pyridine-2-carboxylic acid [4-(5-dibenzofuran-4-yl-pyrazolo[1,5-c]pyrimidin-7-ylamino)-phenyl]-amide] | ≤ 16.9 µM | ≤ 13.6 µM
≤ 1.75 µM | 6.31 to 100 µM | NCc1ccc(C(=O)Nc2ccc(Nc3nc(-c4ccc(-c5ccc(F)cc5)cc4)cc4ccnn34)cc2)cc1 [Example 67, 4-Aminomethyl-N-{4-[5-(4′-fluoro-biphenyl-4-yl)-pyrazolo[1,5-c]pyrimidin-7-ylamino]-phenyl}-benzamide] | ≤ 16.9 µM | ≤ 13.6 µM
≤ 1.75 µM | 6.31 to 100 µM | NCc1ccc(C(=O)Nc2ccc(Nc3nc(-c4ccc(-c5cccc(F)c5)cc4)cc4ccnn34)cc2)cc1 [Example 70, 4-Aminomethyl-N-{4-[5-(3′-fluoro-biphenyl-4-yl)-pyrazolo[1,5-c]pyrimidin-7-ylamino]-phenyl}-benzamide] | ≤ 16.9 µM | ≤ 13.6 µM
